Where two headings read alike, the source gives them in different places. Marks after values point to notes of the source that are not given here.
Assays:
[1] = log P by HPLC (EEC Directive 79/831 Annex V.A8); type: physicochemical
Phytophthora infestans = type: in vivo; details: protective, young tomato plants, active ingredient concentration 500 ppm, evaluation 7 days after inoculation
Plasmopara viticola = assay: Plasmopara test (grapevine) / protective; type: in vivo; details: young grapevine plants, active ingredient concentration 100 ppm, evaluation 6 days after inoculation
Procedure: Plasmopara Test (Grapevine)/Protective
Solvent: 24.5 parts by weight of acetone
• 24.5 parts by weight of dimethylacetamide Emulsifier: 1 part by weight of alkylaryl polyglycol ether
To prepare an appropriate active ingredient preparation, 1 part by weight of active ingredient is mixed with the stated amounts of solvent and emulsifier, and the concentrate is diluted with water to the desired concentration.
To test for protective efficacy, young plants are sprayed with the active ingredient preparation at the stated application rate. After the spray coating has dried on, the plants are inoculated with an aqueous spore suspension of Plasmopara viticola and then remain in an incubation cabin at approx. 20° C. and 100% relative atmospheric humidity for 1 day. Subsequently, the plants are placed in a greenhouse at approx. 21° C. and approx. 90% air humidity for 4 days. The plants are then moistened and placed into an incubation cabin for 1 day.
Evaluation follows 6 days after the inoculation. 0% means an efficacy which corresponds to that of the control, whereas an efficacy of 100% means that no infection is observed.

[2] = [a] HPLC, acidic range, pH 2.3, 0.1% aqueous phosphoric acid and acetonitrile
[3] = [c] LC-MS, neutral range, pH 7.8, 0.001 molar aqueous ammonium hydrogencarbonate and acetonitrile
[4] = [b] LC-MS, acidic range, pH 2.7, 0.1% aqueous formic acid and acetonitrile
[5] = HPLC, pH 2.7, given in the preparation examples, read-out: logP (pH2.7)
[6] = HPLC (LC-MS), [b] LC-MS, acidic range, pH 2.7, 0.1% aqueous formic acid and acetonitrile, read-out: log P

Row | SMILES | log P [1, 3] | efficacy (Phytophthora infestans) | log P [1, 4] | also measured
1 | O=C(Sc1cccc2ccccc12)c1cccc(N2CCN(C(=O)Cn3nc(C(F)F)cc3C(F)F)CC2)n1 [Example 120] | 4.28 | 93% |  | log P [1, 2]: 4.25
2 | O=C(OC1C=CCCC1)c1cccc(N2CCN(C(=O)Cn3nc(C(F)F)cc3C(F)F)CC2)n1 (centres unmarked) [Example 142] | 3.6 | 83% |  | log P [1, 2]: 3.56
3 | CN(C(=O)c1cccc(N2CCN(C(=O)Cn3nc(C(F)F)cc3C(F)F)CC2)n1)C1CCCc2ccccc21 (centres unmarked) [Example 143] | 3.45 | 71% |  | log P [1, 2]: 3.42
4 | O=C(OC1CCCCC1)c1cccc(N2CCN(C(=O)Cn3nc(C(F)F)cc3C(F)F)CC2)n1 [Example 140] | 3.86 | 93% |  | log P [1, 2]: 3.83; efficacy (Plasmopara viticola): 71%
5 | Cc1cc(C(F)(F)F)nn1CC(=O)N1CCN(c2cccc(C(=O)OC3CCCc4ccccc43)n2)CC1 (centres unmarked) [Example 70] | 4.2 | 97% | 4.19 | 
6 | C=CCCCCOC(=O)c1cccc(N2CCN(C(=O)Cn3nc(C(F)(F)F)cc3C)CC2)n1 [Example 71] | 3.95 | 76% |  | 
7 | Cc1cc(C(F)(F)F)nn1CC(=O)N1CCN(c2cccc(C(=O)N(C)Cc3ccccc3Br)n2)CC1 [Example 3] | 3.46 | 88% | 3.44 | 
8 | O=C(OCc1ccccc1F)c1cccc(N2CCN(C(=O)Cn3nc(C(F)F)cc3C(F)F)CC2)n1 [Example 137] | 3.49 | 93% |  | log P [1, 2]: 3.47
9 | O=C(OC1CCCc2ccccc21)c1cccc(N2CCN(C(=O)Cn3nc(C(F)F)cc3C(F)F)CC2)n1 (centres unmarked) [Example 117, 1,2,3,4-Tetrahydronaphthalen-1-yl 6-(4-{[3,5-bis(difluoromethyl)-1H-pyrazol-1-yl]-acetyl}piperazin-1-yl)pyridine-2-carboxylate] |  | 93% |  | chromatographic logP ([1]; HPLC (LC-MS), [c] LC-MS, neutral range, pH 7.8, 0.001 molar aqueous ammonium hydrogencarbonate and acetonitrile, read-out: log P): 4.07; chromatographic logP [1, 5]: 4.02; chromatographic logP ([1]; [a] HPLC, acidic range, pH 2.3, 0.1% aqueous phosphoric acid and acetonitrile, read-out: log P): 4.02; efficacy (Plasmopara viticola): 93%
10 | O=C(Oc1cccc2ccccc12)c1cccc(N2CCN(C(=O)Cn3nc(C(F)F)cc3C(F)F)CC2)n1 [Example 141] | 3.88^[c] | 71% |  | 
11 | Cc1cc(C(F)(F)F)nn1CC(=O)N1CCN(c2cccc(C(=O)OCc3c(F)cc(F)cc3F)n2)CC1 [Example 118] | 3.71 | 93% | 3.68 | 
12 | Cc1cc(C(F)(F)F)nn1CC(=O)N1CCN(c2cccc(C(=O)OC3CCCCC3)n2)CC1 [Example 69] |  | 71% | 3.96 | 
13 | CC(C)(C)OC(=O)N1CC=C(c2cccc(Br)n2)CC1 [tert-Butyl 6-bromo-3′,6′-dihydro-2,4′-bipyridine-1′(2′H)-carboxylate] |  |  |  | chromatographic logP [1, 5]: 4.14
14 | O=C(OCc1c(F)cccc1F)c1cccc(N2CCN(C(=O)Cn3nc(C(F)F)cc3C(F)F)CC2)n1 [Example 138] | 3.43^[a]; 3.43^[c] | 93% |  | log P [1, 2]: 3.43^[a]; 3.43^[c]
15 | O=C(Sc1cccs1)c1cccc(N2CCN(C(=O)Cn3nc(C(F)F)cc3C(F)F)CC2)n1 [Example 124] | 3.75 |  |  | log P [1, 2]: 3.73
16 | CN(Cc1ccccc1Br)C(=O)c1cccc(C2CCN(C(=O)Cn3nc(C(F)F)cc3C(F)F)CC2)n1 [Example 1] | 3.37 |  | 3.32 | 
17 | O=C(NCc1ccccc1Br)c1cccc(C2CCN(C(=O)Cn3nc(C(F)F)cc3C(F)F)CC2)n1 [Example 4] | 3.47 |  | 3.44 | 
18 | Cc1cc(C(F)(F)F)nn1CC(=O)N1CCC(c2cccc(C(=O)OC(C)c3ccccc3Cl)n2)CC1 (centres unmarked) [Example 32] |  |  | 4.12^[b] | 
19 | CCCCCCCNC(=O)c1cccc(C2CCN(C(=O)Cn3nc(C(F)F)cc3C(F)F)CC2)n1 [Example 85] | 4.05 |  | 3.96 | 

Row | SMILES | log P [1, 3] | efficacy (Phytophthora infestans) | log P [1, 4] | also measured
20 | O=C(OC1CCCCC1)c1cccc(C2CCN(C(=O)Cn3nc(C(F)F)cc3C(F)F)CC2)n1 [Example 99, Cyclohexyl 6-(1-{[3,5-bis(difluoromethyl)-1H-pyrazol-1-yl]acetyl}piperidin-4-yl)-pyridine-2-carboxylate] |  |  |  | chromatographic logP [1, 6]: 3.83; chromatographic logP [1, 5]: 3.83
21 | Cc1cc(C(F)(F)F)nn1CC(=O)N1CCC(c2cccc(C(=O)SC3CCCCC3)n2)CC1 [Example 53] | 4.83^[c] |  |  | 
22 | O=C(NCc1ccccn1)c1cccc(C2CCN(C(=O)Cn3nc(C(F)F)cc3C(F)F)CC2)n1 [Example 90] | 2.37 |  | 1.83 | 
23 | O=C(Sc1cccs1)c1cccc(C2CCN(C(=O)Cn3nc(C(F)F)cc3C(F)F)CC2)n1 [Example 123] | 3.77 | 93% |  | log P [1, 2]: 3.76
24 | Cc1cc(C(F)(F)F)nn1CC(=O)N1CCN(c2cccc(C(=O)OC3C=CCCC3)n2)CC1 (centres unmarked) [Example 68] | 3.7 | 94% | 3.67 | 
25 | Cc1cc(C(F)(F)F)nn1CC(=O)N1CCC(c2cccc(C(=O)N(C)C3CCCc4ccccc43)n2)CC1 (centres unmarked) [Example 12, N-Methyl-6-(1-{[5-methyl-3-(trifluoromethyl)-1H-pyrazol-1-yl]acetyl}piperidin-4-yl)-N-(1,2,3,4-tetrahydronaphthalen-1-yl)pyridine-2-carboxamide] |  |  |  | chromatographic logP [1, 6]: 3.61; chromatographic logP [1, 5]: 3.61
26 | CCOC(=O)c1cccc(C2=CCN(C(=O)OC(C)(C)C)CC2)n1 [1′-tert-butyl 6-ethyl-3′,6′-dihydro-2,4′-bipyridine-1′,6(2′H)-dicarboxylate] |  |  |  | logP (pH2.7) ([1]; pH 2.7, given in the preparation examples): 3.48
27 | Cc1cc(C(F)(F)F)nn1CC(=O)N1CCC(c2cccc(C(=O)SCc3c(F)cccc3F)n2)CC1 [Example 58] | 4.29 |  | 4.27 | 
28 | Cc1cc(C(F)(F)F)nn1CC(=O)N1CCN(c2cccc(C(=O)OCc3ccccc3F)n2)CC1 [Example 73] | 3.6 | 71% | 3.58 | 
29 | Cc1cc(C(F)(F)F)nn1CC(=O)N1CCN(c2cccc(C(=O)Oc3ccc4ccccc4c3)n2)CC1 [Example 76] | 4.02 |  | 4.01 | 
30 | O=C(OCc1ccccc1Cl)c1cccc(C2CCN(C(=O)Cn3nc(C(F)F)cc3C(F)F)CC2)n1 [Example 105] |  |  | 3.77^[b] | 
31 | Cc1cc(C(F)(F)F)nn1CC(=O)N1CCN(c2cccc(C(=O)Oc3cccc4ccccc34)n2)CC1 [Example 75] | 4 | 71% | 3.99 | 
32 | O=C(Oc1cccc2c1CCCC2)c1cccc(N2CCN(C(=O)Cn3nc(C(F)F)cc3C(F)F)CC2)n1 [Example 139] | 4.29 |  |  | log P [1, 2]: 4.25
33 | Cc1cc(C(F)(F)F)nn1CC(=O)N1CCC(c2cccc(C(=O)Nc3cccc4ccccc34)n2)CC1 [Example 29] |  |  | 3.94 | 
34 | CN(Cc1ccccn1)C(=O)c1cccc(C2CCN(C(=O)Cn3nc(C(F)F)cc3C(F)F)CC2)n1 [Example 80] | 2.18 |  | 1.81 | 
35 | Cc1cccnc1COC(=O)c1cccc(C2CCN(C(=O)Cn3nc(C(F)F)cc3C(F)F)CC2)n1 [Example 108] |  |  | 2.14^[b] | 
36 | Cc1cc(C(F)(F)F)nn1CC(=O)N1CCC(c2cccc(C(=O)NCc3ccccn3)n2)CC1 [Example 25] | 2.44 |  | 1.97 | 
37 | Cc1cc(C(F)(F)F)nn1CC(=O)N1CCC(c2cccc(C(=O)OCc3ccccc3Cl)n2)CC1 [Example 46] |  |  | 3.84^[b] | 

Reference: patent US8604040B2 (priority 2010, dated 2013)
